Reference: US11060153B2, “Fluorescence amplification method for forward genetic discovery of factors in human mRNA degradation” (Yale University, priority 2016, dated 2021)

Legend:
human NMD [1] = experiment: CRISPR-based forward genetic screen of the GeCKO-LtCRISPR sgRNA library in "green" Fireworks cells (FACS enrichment rounds, deep sequencing of sgRNAs); assay type: cell-based; settings: for sgRNA abundance (%): deep sequencing reads for the sgRNA in the enriched cell population / all reads x 100, round 2, "green" Fireworks cells; for sgRNA enrichment (2nd round): reads in the enriched cell population / reads in total cells at the beginning of the 2nd round, measure of increased PTC(+) reporter fluorescence
Method: 1.8×10^8 (6×15 cm plates) “green” Fireworks cells were lentivirally transduced with the blasticidin-resistant GeCKO-LtCRISPR viral library (Shalem et al., Science 2014, 343:84-87) using 4.0 μm/ml of polybrene and propagated for 8-9 days in DMEM media supplemented with 10% FBS and 120 μm/ml hygromycin, 0.3 μg/ml puromycin and 3.0 μm/ml blasticidin. NMD-deficient cell populations (2×10^5 cells) were isolated from 4×10^8 transduced cells using a Bio-Rad S3e cell sorter (100 μm nozzle) and their genomic DNA was phenol-extracted. sgRNAs pools were PCR-amplified using RandomF (5′-[…] AACACCG-3′) (SEQ ID NO: 6) and RandomR (5′-[…] TAAAAC-3′) (SEQ ID NO: 7) primers and Gibson-cloned into the BsmBI-inearized LentiCRISPR (Shalem et al., Science 2014, 343:84-87) vector to obtain a lentiviral library (represented by 1.5×10^8 independent transformants) for the next enrichment round (FIG. 5C). Three rounds of GeCKO Lt-CRISPR library enrichment were conducted; 1.4×10^8 and 1.2×10^8 cells were sorted in the 2nd and 3rd rounds, respectively. sgRNAs obtained from the 2nd round were deep-sequenced and ranked (Table 1) according to their (i) overall abundance in the enriched sgRNA pool and (ii) enrichment over the starting sgRNA population in this round (since successful enrichment increases both of these numbers).
The Fireworks system was tested with the CRIPR-based knockout screening using the lentiviral GeCKO-lentiCRISPR sgRNA library (Shalem et al., Science 2014, 343:84-87), which contains 64,751 sgRNAs targeting 18,080 human genes. Ease of amplification of chromosomally-integrated sgRNAs by PCR allows multiple rounds of sgRNA library enrichment (FIG. 5C) as sgRNAs are iteratively re-transduced into the original Fireworks cell line after the each round of FACS selection in a SELEX-like (Tuerk and Gold, Science 1990, 249:505-510) manner. Fireworks-driven FACS throughput permits completion of one FACS cycle of genome-wide GeCKO library screening with nearly 800-fold library coverage in less than one hour. […] Importantly, sgRNA-specific effects are amplified, whereas cell-specific fluorescence noise is completely reset at the beginning of each sgRNA enrichment round (FIG. 5C), effectively eliminating false-positives arising from spontaneous and lentiviral insertion-induced (and therefore sgRNA-independent) mutations affecting reporters or the NMD pathway. An increase in the population of cells with a defect in NMD becomes evident during FACS rounds 2 and 3 of sgRNA library enrichment, as shown in FIG. 5D for the GeCKO-lentiCRISPR (Shalem et al., Science 2014, 343:84-87) library in the “green” Fireworks cell line. Here, sorting gates were chosen so as to collect no more than 0.16% of the negative cell population.
The pool of sgRNAs isolated from round 2 (FIG. 5C, 5D) of NMD-deficient population enrichment was deep sequenced to determine (i) the overall abundance of each sgRNA in the enriched pool and (ii) the enrichment factor for each surviving sgRNA over the starting sgRNA pool at this round. Here, the sgRNA enrichment factor serves as a measure of the increased fluorescence of the PTC(+) Fireworks reporter achieved by that sgRNA. The top 24 most abundant sgRNAs (of 64,751 sgRNAs originally present in the GeCKO library), which attained enrichment scores higher than 10, are listed in Table 1 along with their intended (Shalem et al., Science 2014, 343:84-87) gene targets.

human NMD [2] = experiment: FACS analysis of green fluorescence of the PTC(+) GFP reporter in the "red" Fireworks cell line after NMD inhibition; assay type: cell-based; settings: FIG. 7B
Description: Sixteen of the most abundant individual sgRNAs (Table 1), whose enrichment scores in the 2nd round exceeded 10.0, were individually cloned into linearized Lt-CRISPR vector and lentivirally transduced into the “green” Fireworks cell line. Resulting cells were propagated for 11 days (or 21 days for AVEN sgRNA) and FACS-analyzed to observe an increase in […] fluorescence of the PTC(+) Fireworks reporter. Indeed, the vast majority of sgRNAs reproduced the shift when tested individually. RPS8 and AVEN were targeted with shRNAs (sh22: 5′[…] GTTTTTTG3′ (SEQ ID NO: 8) and sh01: 5′[…] CTTTTTTG3′ (SEQ ID NO: 9) for RPS8 and AVEN, respectively) cloned into the pLKO.1 vector (Moffat et al., Cell 2006, 124:1283-1298) that was used to transduce “green” and “red” Fireworks cells followed by FACS-analysis to observe effects of mRNA knockdown on fluorescence of the PTC(+) reporters.
The Fireworks approach provides the ability to perform forward genetic screens for human NMD factors at the speed of a FACS sorter. As designed, orthogonal Fireworks cell lines respond as expected to the introduction of a stop codon (PTC39) (Zhang et al., RNA 1998, 4:801-815) into the β-globin sequence by a 7- to 9-fold reduction in the reporter's fluorescence (FIGS. 1C, 1D and 2C). PTC39, which is upstream of the last intron in the β-globin pre-mRNA, induces NMD of the Fireworks reporter mRNA. […]

Substance | sgRNA abundance (%) (human NMD [1]) | sgRNA enrichment (2nd round) (human NMD [1]) | green fluorescence of the "red" Fireworks cell line after shRNA transduction (human NMD [2])
20 (CGCATTGAAAACGTTTGCCG; expressed or natural sequence) [compound 20] | 0.153 | 18.4 | 
21 (GGTACCTTCACTGGAGCCAC; expressed or natural sequence) [compound 21] | 0.132 | 16.1 | 
CCGGCCGTGCCCTGAGGTTGGACGTCTCGAGACGTCCAACCTCAGGGCACG GTTTTTTG (guide CCGGCCGTGCCCTGAGGTTGGACGTCTCGAGACGTCCAACCTCAGGGCACGGTTTTTTG; expressed or natural sequence) [RPS8-targeting shRNA, shRNA targeting RPS8 cloned into the pLKO.1 vector] |  |  | increase in green fluorescence
29 (TAAGTTGTCAGAAAACATGA; expressed or natural sequence) [compound 29] | 0.054 | 17.1 | 
26 (TTAGCATCAGCTACTGCCAG; expressed or natural sequence) [compound 26] | 0.076 | 14.2 | 
25 (TGCTTTGTGTTTCTTTACAC; expressed or natural sequence) [compound 25] | 0.083 | 17.0 | 
31 (GCGCCCAGCTGCCAACACCA; expressed or natural sequence) [compound 31] | 0.036 | 53.9 | 
19 (CCGTGACATCACAGACCCGT; expressed or natural sequence) [compound 19] | 0.176 | 21.2 | 
14 (GTTCTCTGATAATCAGAATG; expressed or natural sequence) [compound 14] | 0.439 | 14.7 | 
30 (TCACATCGGCAGCCACCCGT; expressed or natural sequence) [compound 30] | 0.043 | 30.7 | 
18 (TGAGCACATACTCTTCACAC; expressed or natural sequence) [compound 18] | 0.180 | 102.2 | 
12 (AGTGTCCTCCTTAGCTCTGC; expressed or natural sequence) [compound 12] | 0.872 | 118.7 | 
13 (AGTGTCCTCCTTAGCTCTGC; expressed or natural sequence) [compound 13] | 0.440 | 33.8 | 
23 (CTCAACCGATTCCTTAGACG; expressed or natural sequence) [compound 23] | 0.125 | 19.5 | 
15 (ACGCACCTGGTTGCTGGTAT; expressed or natural sequence) [compound 15] | 0.265 | 54.7 | 
17 (CTATGAGGGGGTCAGTGACA; expressed or natural sequence) [compound 17] | 0.232 | 18.3 | 
22 (TATGTCTTACCAGAAGCTGC; expressed or natural sequence) [compound 22] | 0.132 | 23.3 | 
28 (TTCAAACTAGTAAGCAACAC; expressed or natural sequence) [compound 28] | 0.054 | 18.4 | 
24 (TCACGCTTCACGCTGACAGT; expressed or natural sequence) [compound 24] | 0.083 | 80.0 | 
33 (TACCTATGTGCGTCAGCAGC; expressed or natural sequence) [compound 33] | 0.023 | 49.5 | 
27 (GAAAGACTGAGGAGCTGCTG; expressed or natural sequence) [compound 27] | 0.062 | 38.0 | 
11 (AGGTCCACTCACCATTGGAG; expressed or natural sequence) [compound 11] | 0.888 | 113.9 | 
10 (TGATTACGTCCTCCACCTCG; expressed or natural sequence) [compound 10] | 1.081 | 47.0 | 
16 (GGATGACCAAGACGACATCA; expressed or natural sequence) [compound 16] | 0.262 | 18.3 | 
32 (AGCCCATAATGTACCAGTGC; expressed or natural sequence) [compound 32] | 0.033 | 14.4 | 
